Measured values from patent US7758851B2, “Preservative systems and their use in cosmetic preparations” (Laboratorios Miret, S.A., priority 2001, dated 2010).

Experiments:
Fungi = test: Antimicrobial Effectiveness Testing (USP 24) of preserved cosmetic formulations, count of fungi; format: cell-based, Aspergillus niger ATCC 16404; conditions: for Fungi, Initial: 0 hours
Description: (§1) Procedure to Evaluate the Efficacv of the Preservative System
(§2) This assay consists on the contamination of the formulations to be protected with a mixed inoculum of 10^8 cfu/ml concentration, in each of the micro-organisms, and see the variation of the viable cells in time. This mixed inoculum is composed of the following micro-organisms:
(§3) The cosmetic composition which is the subject of the investigation is divided into containers with 50 g of product for each flask. Each container is inoculated with 0.5 ml of the inoculum (10^8 cfu/ml). The target concentration is 10^6 cfu/mL, approximately. All the containers are kept at a temperature between 20-25° C. and are protected against light.
(§4) The level of the microbial contamination is determined at 0 hours and after 7 days, 14 days and 28 days. The number of colonies is determined by dilution in buffer peptone with the appropriate neutraliser agent of the preservative. The culture media used for counting the micro-organisms were: Soya triptone agar (35-37° C., 48 hours) for the determination of bacteria; and Sabouraud agar with chloramphenicol for fungi and yeast (25° C., 3-5 days).
(§5) According to Antimicrobial Effectiveness Testing USP 24th Edition, 1999 (pp. 1809-1811), an antimicrobial preservative is considered to be effective in topically used products made with aqueous bases or vehicles, non-sterile nasal products and emulsions, including those applied to mucous membranes, if: • not less than 2,0 logarithm reduction from the initial calculated bacteria's count at 14 days is reached and no increase from the 14 days' count is detected after 28 days; and • no increase from the initial calculated count of yeast and moulds is observed.

Yeast = test: Antimicrobial Effectiveness Testing (USP 24) of preserved cosmetic formulations, count of yeast; format: cell-based, Candida albicans ATCC 10231; conditions: for Yeast, Initial: 0 hours
Description: as §1, §2, §3, §4, §5

Aerobes = test: Antimicrobial Effectiveness Testing (USP 24) of preserved cosmetic formulations, count of aerobes; format: cell-based; conditions: for Aerobes, Initial: 0 hours
Description: as §1, §2, §3, §4, §5

[1] = Example 1, oil in water emulsion with non-ionic surfactant
[2] = Example 2, oil in water emulsion with ionic emulsifier
[3] = Example 3, water in oil emulsion with non-ionic emulsifier

| SMILES | Fungi, Initial (Fungi; [1]) | Fungi, 7 days (Fungi; [1]) | Fungi, 14 days (Fungi; [1]) | Fungi, Initial (Fungi; [2]) | Fungi, 7 days (Fungi; [2]) | Fungi, 14 days (Fungi; [2]) | Fungi, Initial (Fungi; [3]) | Fungi, 7 days (Fungi; [3]) | Fungi, 14 days (Fungi; [3]) | Yeast, Initial (Yeast; [1]) | Yeast, 7 days (Yeast; [1]) | Yeast, 14 days (Yeast; [1]) | Yeast, Initial (Yeast; [2]) | Yeast, 7 days (Yeast; [2]) | Yeast, 14 days (Yeast; [2]) | Yeast, Initial (Yeast; [3]) | Yeast, 7 days (Yeast; [3]) | Yeast, 14 days (Yeast; [3]) | Aerobes, Initial (Aerobes; [1]) | Aerobes, 7 days (Aerobes; [1]) | other results |
| --- | --- | --- | --- | --- | --- | --- | --- | --- | --- | --- | --- | --- | --- | --- | --- | --- | --- | --- | --- | --- | --- |
| ClC=CC[N+]12CN3CN(CN(C3)C1)C2.[Cl-] [compound 8] | 1.8 · 10^5 | 1.3 · 10^3 | <9.9 · 10^1 | 1.8 · 10^5 | 5.3 · 10^3 | <9.9 · 10^1 | 3.8 · 10^4 | 1.3 · 10^3 | <9.9 · 10^1 | 3.4 · 10^4 | 1.6 · 10^2 | <9.9 · 10^1 | 1.9 · 10^4 | 5.9 · 10^2 | <9.9 · 10^1 | 5.9 · 10^4 | 5.9 · 10^2 | <9.9 · 10^1 | 4.8 · 10^6 | 7.2 · 10^3 | Aerobes, 14 days (Aerobes; [1]): 5.3 · 10^2; Aerobes, Initial (Aerobes; [2]): 4.6 · 10^6; Aerobes, 7 days (Aerobes; [2]): 7.2 · 10^3; Aerobes, 14 days (Aerobes; [2]): 9.8 · 10^2; Aerobes, Initial (Aerobes; [3]): 4.2 · 10^6; Aerobes, 7 days (Aerobes; [3]): 2.7 · 10^3; Aerobes, 14 days (Aerobes; [3]): 9.4 · 10^2 |
| OCCOc1ccccc1 [compound 5] | 1.7 · 10^5 | 1.3 · 10^3 | <9.9 · 10^1 | 1.2 · 10^5 | 5.5 · 10^3 | 3.4 · 10^2 | 4.2 · 10^4 | 5.5 · 10^3 | <9.9 · 10^1 | 3.4 · 10^4 | 1.6 · 10^2 | <9.9 · 10^1 | 2.3 · 10^4 | 5.3 · 10^2 | <9.9 · 10^1 | 5.3 · 10^4 | 5.3 · 10^2 | <9.9 · 10^1 | 2.3 · 10^6 | 1.8 · 10^3 | Aerobes, 14 days (Aerobes; [1]): 6.2 · 10^2; Aerobes, Initial (Aerobes; [2]): 2.7 · 10^6; Aerobes, 7 days (Aerobes; [2]): 1.8 · 10^4; Aerobes, 14 days (Aerobes; [2]): 1.8 · 10^3; Aerobes, Initial (Aerobes; [3]): 4.8 · 10^6; Aerobes, 7 days (Aerobes; [3]): 3.9 · 10^3; Aerobes, 14 days (Aerobes; [3]): 1.9 · 10^3 |
| CCCCCCCCCCCC(=O)NC(CCCNC(=N)N)C(=O)OCC.Cl (stereo not drawn) [compound 1] | 1.7 · 10^5 | 8.9 · 10^2 | <9.9 · 10^1 | 1.4 · 10^5 | 7.2 · 10^3 | 2.8 · 10^2 | 1.0 · 10^5 | <9.9 · 10^1 | <9.9 · 10^1 | 5.6 · 10^4 | 9.5 · 10^2 | 4.0 · 10^2 | 3.6 · 10^4 | 1.0 · 10^2 | 1.0 · 10^2 | 7.0 · 10^4 | <9.9 · 10^1 | <9.9 · 10^1 | 1.1 · 10^6 | 3.1 · 10^3 | Aerobes, 14 days (Aerobes; [1]): 3.3 · 10^2; Aerobes, Initial (Aerobes; [2]): 2.7 · 10^6; Aerobes, 7 days (Aerobes; [2]): 1.6 · 10^4; Aerobes, 14 days (Aerobes; [2]): 6.5 · 10^2; Aerobes, Initial (Aerobes; [3]): 6.2 · 10^6; Aerobes, 7 days (Aerobes; [3]): 1.8 · 10^3; Aerobes, 14 days (Aerobes; [3]): <9.9 · 10^1 |
| CC1(C)C(=O)N(CO)C(=O)N1CO [compound 4] | 1.6 · 10^5 | 3.2 · 10^3 | <9.9 · 10^1 | 1.4 · 10^5 | 6.2 · 10^3 | 2.7 · 10^2 | 6.4 · 10^4 | 6.2 · 10^3 | <9.9 · 10^1 | 5.6 · 10^4 | 3.1 · 10^2 | <9.9 · 10^1 | 1.8 · 10^4 | 2.8 · 10^2 | <9.9 · 10^1 | 4.8 · 10^4 | 2.8 · 10^2 | <9.9 · 10^1 | 1.5 · 10^6 | 4.7 · 10^3 | Aerobes, 14 days (Aerobes; [1]): 8.5 · 10^2; Aerobes, Initial (Aerobes; [2]): 5.2 · 10^6; Aerobes, 7 days (Aerobes; [2]): 4.7 · 10^3; Aerobes, 14 days (Aerobes; [2]): 8.7 · 10^2; Aerobes, Initial (Aerobes; [3]): 5.6 · 10^6; Aerobes, 7 days (Aerobes; [3]): 4.7 · 10^3; Aerobes, 14 days (Aerobes; [3]): 4.3 · 10^2 |
| O=[N+]([O-])C(Br)(CO)CO [compound 2] | 1.5 · 10^5 | 1.2 · 10^3 | <9.9 · 10^1 | 1.5 · 10^5 | 8.5 · 10^3 | 1.1 · 10^2 | 3.5 · 10^4 | 8.5 · 10^3 | <9.9 · 10^1 | 3.4 · 10^4 | 1.7 · 10^2 | <9.9 · 10^1 | 2.9 · 10^4 | 8.9 · 10^2 | 4.0 · 10^2 | 5.9 · 10^4 | 8.9 · 10^2 | 4.0 · 10^2 | 1.2 · 10^6 | 2.1 · 10^3 | Aerobes, 14 days (Aerobes; [1]): 7.9 · 10^2; Aerobes, Initial (Aerobes; [2]): 4.5 · 10^6; Aerobes, 7 days (Aerobes; [2]): 2.1 · 10^4; Aerobes, 14 days (Aerobes; [2]): 3.8 · 10^3; Aerobes, Initial (Aerobes; [3]): 3.3 · 10^6; Aerobes, 7 days (Aerobes; [3]): 5.7 · 10^3; Aerobes, 14 days (Aerobes; [3]): 2.8 · 10^3 |
